Experimental data taken from patent US11649236B2, “Polycyclic carbamoylpyridone derivative” (Shionogi & Co., Ltd., priority 2018, dated 2023).

How the values were obtained:
[1] = test system: HIV; assay: Anti-HIV activity (MT-4 cells, MTT); format: cell-based; settings: Human immunodeficiency virus 1, MT4, 96 h, cultured 4 days
Procedure, shortened: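 MT-4 cells (2.5×10^5 cells/mL) mixed with serial dilutions of test sample and HIV, cultured 4 days in CO2 incubator. MTT added for 1 h, cells lysed, absorbance read at 560 nm and 690 nm.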

[2] = test system: HIV mutant strain 1 (E138K/G140S/Q148H/N155H); assay: Resistance evaluation test (HeLa-CD4 reporter), mutant strain 1; format: cell-based; settings: FC=EC50 of mutant strain/EC50 of wild strain, HeLa-CD4 cells
Procedure: (§1) Serial dilutions of a test sample were prepared in a96-well microplate (50 μL/well). 2.5×10^5 cells/mL of a HeLa-CD4 cell suspension was dispensed at 100 μL/well to the plate containing the test sample. Then, an HIV virus solution (wild strain and mutant strain) was dispensed at 50 μL/well. The plate was mixed with a plate mixer and cultured for 3 days in a CO2 incubator. The culture supernatant in each well was removed by suction. A cell lysis buffer in a reporter assay kit was dispensed at 100 μL/well, and the plate was frozen in a freezer (−80° C.). The plate frozen in a freezer was thawed at room temperature, then mixed with a plate mixer, and centrifuged at 1,200 rpm for 5 minutes. The supernatant of each well was dispensed at 20 μL/well to a 96-well microplate (BLACK). A chemiluminescent reagent in the reporter assay kit was dispensed at 100 μL/well and reacted at room temperature for approximately 1 hour. Then, luminescence intensity was measured using MicroBeta TRILUX. […] FC=EC50 of mutant strain/EC50 of wild strain (Results) FC for the mutant strain 1 (E138K/G140S/Q148H/N155H) and FC for the mutant strain 2 (E92Q/E138T/G140S/Q148H) are shown in the table.

[3] = test system: HIV mutant strain 2 (E92Q/E138T/G140S/Q148H); assay: Resistance evaluation test (HeLa-CD4 reporter), mutant strain 2; format: cell-based; settings: FC=EC50 of mutant strain/EC50 of wild strain, HeLa-CD4 cells
Procedure: as §1

[4] = Metabolic stability test; format: in vitro ADME, human; parameters: key: % remaining vs amount at 0 min (=100%)
Procedure: Commercially available pooled human liver microsomes were reacted with the compound of the present invention for a certain time. A residual rate was calculated by the comparison between the reacted sample and an unreacted sample to evaluate the degree at which the compound of the present invention is metabolized in the liver. A reaction was performed (oxidative reaction) at 37° C. for 0 minutes or 30 minutes in the presence of 1 mmol/L NADPH in 0.2 mL of a buffer (50 mmol/L Tris-HCl pH 7.4, 150 mmol/L potassium chloride, 10 mmol/L magnesium chloride) containing 0.5 mg protein/mL of human liver microsomes. After the reaction, 50 μL of the reaction solution was added to 100 μL of a solution of methanol/acetonitrile=1/1 (v/v) and mixed, and the mixture was centrifuged at 3000 rpm for 15 minutes. The compound of the present invention in the centrifugation supernatant was quantified by LC/MS/MS or solid-phase extraction (SPE)/MS. The amount of the compound of the present invention remaining after the reaction was calculated with the amount of the compound at 0 minutes of the reaction defined as 100%.

[5] = compound 0.5 μmol/L, human liver microsomes 0.5 mg protein/mL, NADPH, 37° C., 30 minutes, amount at 0 minutes defined as 100%
[6] = human, 30 min, 0.5 μmol/L, pH 7.4

| SMILES | EC50 [1] | FC mutant strain 1 [2] | FC mutant strain 2 [3] | residual rate [4, 5] | residual rate [4, 6] |
| --- | --- | --- | --- | --- | --- |
| CCN1C(=O)c2c(O)c(=O)c(C(=O)NCc3ccc(F)cc3F)cn2N2CCCC[C@@]12C [Compound I-006] | 0.76 nM | 24 | 16 | 92.5 |  |
| CCN1C(=O)c2c(O)c(=O)c(C(=O)NCc3c(F)cc(F)cc3F)cn2N2CCCC[C@@H]12 [Compound I-011] | 2.2 nM | 13 | 10 | 88 |  |
| CC(C)N1C(=O)c2c(O)c(=O)c(C(=O)NCc3c(F)cc(F)cc3F)cn2N2C[C@@H]3CC[C@@H](O3)[C@@H]12 [II-005] | 0.62 nM | 3.1 | 7.4 | 80.2 |  |
| COC[C@@H]1CC[C@H]2N(C(C)C)C(=O)c3c(O)c(=O)c(C(=O)NCc4ccccc4F)cn3N12 [II-009] | 2.6 nM | 4.6 | 7.7 | 80.8 |  |
| CC(C)N1C(=O)c2c(O)c(=O)c(C(=O)NCc3ccccc3F)cn2N2C[C@@H]3CC[C@@H](O3)[C@@H]12 [II-013] | 0.4 nM | 5.6 | 6.4 | 87 |  |
| CCN1C(=O)c2c(O)c(=O)c(C(=O)NCc3c(F)cc(F)cc3F)cn2N2C[C@@H]3CC[C@@H](C3)[C@@H]12 [II-015] | 0.95 nM | 5.7 | 7.3 | 74.3 |  |
| CCN1C(=O)c2c(O)c(=O)c(C(=O)NCc3ccc(F)cc3F)cn2N2C[C@@H]3CCC[C@@H](C3)[C@@H]12 [II-018] | 2.9 nM | 6.1 | 8.7 | 77.6 |  |
| CCN1C(=O)c2c(O)c(=O)c(C(=O)NCc3c(F)cc(F)cc3F)cn2N2C[C@@H](C)CC[C@@H]12 [II-020] | 1.5 nM | 6.4 | 8.9 | 90.7 |  |
| CC(C)N1C(=O)c2c(O)c(=O)c(C(=O)NCc3ccc(F)cc3F)cn2N2C[C@@H]3CC[C@@H](O3)[C@@H]12 [II-021] | 0.72 nM | 6.6 | 9 | 89.1 |  |
| CN1C(=O)c2c(O)c(=O)c(C(=O)NCc3cccc(Cl)c3F)cn2N2CCCC[C@@H]12 [II-022] | 0.74 nM | 6.8 | 7.7 | 101 |  |
| CCN1C(=O)c2c(O)c(=O)c(C(=O)NCc3ccc(F)cc3F)cn2N2CC[C@@H](C)C[C@@H]12 [II-023] | 0.46 nM | 7 | 4.2 | 82.9 |  |
| C[C@H]1CC[C@H]2N(C)C(=O)c3c(O)c(=O)c(C(=O)NCc4cccc(Cl)c4F)cn3N2C1 [II-024] | 1.4 nM | 7.3 | 7 | 84.1 |  |
| CC(C)N1C(=O)c2c(O)c(=O)c(C(=O)NCc3ccc(F)cc3F)cn2N2CCOC[C@@H]12 [II-026] | 0.18 nM | 8.1 | 14 | 87.5 |  |
| CCN1C(=O)c2c(O)c(=O)c(C(=O)NCc3ccc(F)cc3F)cn2N2C[C@@H](COC)C[C@@H]12 [II-041] | 0.66 nM | 15 | 28 | 94.3 |  |
| C[C@H]1C[C@H]2N(C)C(=O)c3c(O)c(=O)c(C(=O)NCc4cccc(Cl)c4F)cn3N2C1 [II-042] | 3.2 nM | 15 | 7.9 | 97.4 |  |
| CCN1C(=O)c2c(O)c(=O)c(C(=O)NCc3c(F)cc(F)cc3F)cn2N2C[C@@H]3CC[C@@H](O3)[C@@H]12 [II-046] | 0.19 nM | 17 | 28 | 88.4 |  |
| CC(C)N1C(=O)c2c(O)c(=O)c(C(=O)NCc3c(F)cc(F)cc3F)cn2N2[C@H]3COC[C@H]3C[C@@H]12 [II-048] | 0.55 nM | 17 | 34 |  | 73.3 |

| SMILES | EC50 [1] | FC mutant strain 1 [2] | FC mutant strain 2 [3] | residual rate [4, 5] | residual rate [4, 6] |
| --- | --- | --- | --- | --- | --- |
| CCN1C(=O)c2c(O)c(=O)c(C(=O)NCc3c(F)cc(F)cc3F)cn2N2C[C@@H](C)C[C@@H]12 [II-049] | 0.77 nM | 18 | 17 | 83.2 |  |
| CCN1C(=O)c2c(O)c(=O)c(C(=O)NCc3cccc(Cl)c3F)cn2N2[C@H]3COC[C@H]3C[C@@H]12 [II-060] | 0.27 nM | 22 | 16 |  | 61.6 |
| CN1C(=O)c2c(O)c(=O)c(C(=O)NCc3cccc(Cl)c3F)cn2N2C[C@@H]3CC[C@@H](O3)[C@@H]12 [II-066] | 0.17 nM | 25 | 15 | 97.7 |  |
| CCN1C(=O)c2c(O)c(=O)c(C(=O)NCc3ccc(F)cc3F)cn2N2CC[C@H](C)C[C@@H]12 [II-071] | 0.74 nM | 27 | 22 | 104 |  |
| CCN1C(=O)c2c(O)c(=O)c(C(=O)NCc3ccc(F)cc3)cn2N2CCCC[C@@H]12 [II-077] | 1.1 nM | 32 | 36 | 100 |  |
| CN1C(=O)c2c(O)c(=O)c(C(=O)NCc3c(F)cc(F)cc3F)cn2N2CCCC[C@@H]12 [II-087] | 1.4 nM | 38 | 14 | 105 |  |
| C[C@H]1CC[C@H]2N(C)C(=O)c3c(O)c(=O)c(C(=O)NCc4ccc(Cl)cc4F)cn3N2C1 [II-090] | 3.2 nM | 38 | 25 | 95.7 |  |
| CCN1C(=O)c2c(O)c(=O)c(C(=O)NCc3ccc(F)cc3F)cn2N2[C@H](COC)CC[C@@H]12 [II-093] | 0.32 nM | 39 | 38 | 97.5 |  |
| CN1C(=O)c2c(O)c(=O)c(C(=O)NCc3cccc(Cl)c3F)cn2N2CCCC[C@@]12C [II-099] | 0.33 nM | 44 | 26 | 88.6 |  |
| CCN1C(=O)c2c(O)c(=O)c(C(=O)NCc3ccc(F)cc3F)cn2N2C[C@@H]3CC[C@@H](O3)[C@@H]12 [II-102] | 0.61 nM | 47 | 45 | 101 |  |
| CN1C(=O)c2c(O)c(=O)c(C(=O)NCc3cccc(F)c3F)cn2N2CCCC[C@@H]12 [II-104] | 0.69 nM | 48 | 17 | 96.9 |  |
| CCN1C(=O)c2c(O)c(=O)c(C(=O)NCc3ccc(F)cc3F)cn2N2C[C@H](COC)C[C@@H]12 [II-105] | 0.58 nM | 48 | 62 | 84.3 |  |
| CN1C(=O)c2c(O)c(=O)c(C(=O)NCc3cccc(Cl)c3F)cn2N2CCOC[C@@H]12 [II-108] | 0.61 nM | 50 | 27 | 97.2 |  |
| CN1C(=O)c2c(O)c(=O)c(C(=O)NCc3cccc(Cl)c3F)cn2N2[C@H]3COC[C@H]3C[C@@H]12 [II-133] | 0.43 nM | 76 | 17 |  | 101 |
| CCN1C(=O)c2c(O)c(=O)c(C(=O)NCc3ccc(F)cc3F)cn2N2[C@H]3COC[C@H]3C[C@@H]12 [II-136] | 0.65 nM | 78 | 110 |  | 77.2 |
| CN1C(=O)c2c(O)c(=O)c(C(=O)NCc3cccc(Cl)c3F)cn2N2C[C@@H]3CCC[C@@H](C3)[C@@H]12 [II-153] | 0.74 nM | 18 | 10 | 75.4 |  |
| CCN1C(=O)c2c(O)c(=O)c(C(=O)NCc3ccc(F)cc3F)cn2N2C[C@@H]3CCC[C@@H](O3)[C@@H]12 [II-156] | 0.33 nM | 26 | 16 | 98.6 |  |
